The values that follow come from US6365602B1, “N-substituted naphthalene carboxamides as neurokinin-receptor antagonists” (Astra Zeneca AB, priority 1998, dated 2002).

One data set addresses T1, NK1 receptor (Oryctolagus cuniculus, UniProt G1SEI7).
T1 construct: Paired tissue segments of pulmonary artery excised from male New Zealand white rabbits; from tissue; host or cells: rabbit pulmonary artery segments
Put plainly: Rabbit Pulmonary Artery: NK1 in vitro functional assay (Test D). In kind it is cell-based. To be noted: relaxation to agonist ASMSP, negative log apparent dissociation constant, read-out: NK1pKb (converted). An excerpt:
Rabbit Pulmonary Artery: NK1 in vitro functional assay (Test D)
The ability of a Compound of the invention to antagonize the action of the agonist Ac-[Arg^6, Sar^9, Met(O2)^11] […] Am. J. Physiol. 268: L152-L159, 1995.
Paired tissue segments of pulmonary artery excised from male New Zealand white rabbits are suspended between stainless steel stirrups for analyses of isometric relaxation under standard conditions in physiological salt solution (PSS) containing indomethacin (5 microM; to block cyclooxygenase) and propranolol (1 microM; to block β adrenergic receptors).
Initial tension placed on each tissue is 2 grams, which is maintained throughout the 1.0 hour equilibration period. Tissues are washed with PSS at 15 minute intervals. At the 30 and 45 minute wash the following treatments are added: Thiorphan (1 microM; to block E.C.3.4.24.11), ((3R)-3-[(1S)-1-(3,4-Dichlorophenyl)-3-(4-[(R or S)-2-methylsulfinyl-phenyl]-piperidino)propyl]-2-ethyl-2,3-dihydroisoindol-1-one) (0.03 microM; to block NK^2 receptors as described in: “Aharony D., et al. Pharmacological Characterization of ZD7944: A Novel, Potent and orally-Active Non-Peptide Neurokinin-A (NK-2) Receptor Antagonist Eur. Respir. J. 12 (Suppl. 12):20S, 1998”), and the given concentration of the Compound being tested. After equilibration, phenylephrine (3 microM) is added to produce steady-state contraction of the tissue and a dose relaxation curve to ASMSP is constructed. […]
For antagonists behaving in a noncompetitive manner, the percent inhibition of relaxation is determined at a given concentration of the antagonist. Percent inhibition is determined when a tested Compound produces a statistically significant reduction of the magnitude of maximum relaxation and is calculated as a percentage of the papaverine reference response For antagonists behaving competitively, potencies are determined by calculating the negative log value of the apparent dissociation constant (pKB) for each concentration tested. Statistical significance is determined when the P value is <0.05 using the Student's t-test for paired comparisons.

The next data set has as its target T2, NK2 receptor (Oryctolagus cuniculus, UniProt P79218).
T2 construct: Left and right pulmonary arteries are excised from male New Zealand white rabbits; from tissue; host or cells: rabbit pulmonary artery ring segments, endothelium removed
T2 sequence (P79218 1-384): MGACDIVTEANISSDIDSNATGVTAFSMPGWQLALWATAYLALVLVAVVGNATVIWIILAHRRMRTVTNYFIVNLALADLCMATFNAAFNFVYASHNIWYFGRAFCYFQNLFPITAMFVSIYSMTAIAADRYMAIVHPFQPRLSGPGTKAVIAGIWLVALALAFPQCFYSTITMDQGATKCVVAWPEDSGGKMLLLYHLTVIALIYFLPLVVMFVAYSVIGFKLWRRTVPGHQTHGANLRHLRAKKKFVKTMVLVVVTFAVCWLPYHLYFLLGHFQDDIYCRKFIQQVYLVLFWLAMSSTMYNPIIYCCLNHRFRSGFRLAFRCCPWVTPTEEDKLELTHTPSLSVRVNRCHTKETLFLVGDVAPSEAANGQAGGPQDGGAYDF
Put plainly: NK2 in vitro functional assay (Test E), rabbit pulmonary artery. In kind it is cell-based. The conditions noted are these: contraction to agonist BANK, negative log apparent dissociation constant, read-out: NK2pKb (converted). An excerpt: NK2 in vitro functional assay (Test E)
The ability of a Compound of the invention to antagonize the action of the agonist [β-ala^8] […] Am. J. Physiol. […] Left and right pulmonary arteries are excised from male New Zealand white rabbits. The pulmonary arteries are cut into ring segments and the intimal surface rubbed gently to remove the endothelium. Paired tissue segments of pulmonary artery are suspended between stainless steel stirrups for analyses of isometric tension development under standard conditions in physiological salt solution (PSS) containing indomethacin, (5 microM; to inhibit cyclooxygenase).
Initial tension placed on each tissue is 2 grams, which is maintained throughout the 45 minute equilibration period. Tissues are washed with PSS at 15 minute intervals. After the 45 minute equilibration period, 3×10^−2M KCl is applied for 60 minutes to test tissue viability. The tissues are then washed extensively for 30 minutes. The concentration of the Compound being tested is then added for 30 minutes before constructing a cumulative concentration-response curve with BANK. The curve is considered complete when each tissue fails to contract further for 2 consecutively increasing BANK concentrations. BaCl2 (3×10^−2M ) is then added to produce a maximum reference contraction.
Percent inhibition is determined when a tested Compound produces a statistically significant reduction in the magnitude of maximum contraction and is calculated as a percentage of the BaCl2 reference response. For antagonists behaving competitively, potencies are determined by calculating the negative log value of the apparent dissociation constant (pKB) for each concentration tested. Statistical significance is determined when the P value is <0.05 using the Student's t-test for paired comparisons.
(§1) NK1 and NK2 in vivo functional assay (Test F)

A further data set has as its target T3, NK1 receptors (Cavia porcellus, UniProt P30547).
T3 construct: from tissue; host or cells: whole anesthetized guinea pig (airways, in vivo)
Put plainly: NK1 in vivo functional assay (Test F), ASMSP-induced bronchoconstriction. To be noted: anesthetized guinea pig, agonist ASMSP, Dose Ratio of ED50 in presence/absence of antagonist. On the procedure: as §1
(§2) Exp. Ther., 1993, Vol 267(3), pp 1168-1175. The assay is carried out as follows.
(§3) Compounds are tested in anesthetized guinea pigs pretreated with i.v. indomethacin (10 mg/kg, 20 min.), propranolol (0.5 mg/kg, 15 min.), and thiorphan (10 mg/kg, 10 min).
(§4) […] The agonists used in these studies are ASMSP (Ac-[Arg^6, Sar^9, Met(O2)^11]-SP(6-11)) and BANK (β-ala-8 NKA4-10).
(§5) Administered i.v., ASMSP is selective for NK1 receptors, and BANK is selective for NK2 receptors. Maximum response is defined as zero conductance (GL, 1/Rp). ED50 values are calculated (the dose of agonist resulting in a reduction of GL to 50% of baseline), and converted to the negative logarithm (−logED50). The ED50 values, obtained in the presence (P) and absence (A) of antagonist, are used to calculate a Dose Ratio (P/A), an expression of potency. Data are expressed as mean±SEM and statistical differences were determined using ANOVA/Tukey-Kramer and Student's t-test, with p<0.05 considered statistically significant.

For a further data set, the target named is T4, NK2 receptors (Cavia porcellus, UniProt Q64077).
T4 construct: from tissue; host or cells: whole anesthetized guinea pig (airways, in vivo)
T4 sequence (Q64077 1-402): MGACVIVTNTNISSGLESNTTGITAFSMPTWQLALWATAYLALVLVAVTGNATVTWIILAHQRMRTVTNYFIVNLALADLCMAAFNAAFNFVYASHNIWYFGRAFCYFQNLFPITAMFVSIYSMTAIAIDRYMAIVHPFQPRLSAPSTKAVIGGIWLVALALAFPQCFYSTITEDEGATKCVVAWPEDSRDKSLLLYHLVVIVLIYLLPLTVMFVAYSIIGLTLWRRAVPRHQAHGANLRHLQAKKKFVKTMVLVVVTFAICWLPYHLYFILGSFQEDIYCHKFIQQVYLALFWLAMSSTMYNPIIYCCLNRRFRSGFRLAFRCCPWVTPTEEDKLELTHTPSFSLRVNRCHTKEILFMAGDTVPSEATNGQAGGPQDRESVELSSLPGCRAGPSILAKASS
Put plainly: NK2 in vivo functional assay (Test F), BANK-induced bronchoconstriction. The conditions noted are these: anesthetized guinea pig, agonist BANK, Dose Ratio of ED50 in presence/absence of antagonist. The procedure:
as §1, §2, §3, §4, §5

Where a name gives a salt, the structure may show the parent alone.

T1 sequence (G1SEI7 1-407): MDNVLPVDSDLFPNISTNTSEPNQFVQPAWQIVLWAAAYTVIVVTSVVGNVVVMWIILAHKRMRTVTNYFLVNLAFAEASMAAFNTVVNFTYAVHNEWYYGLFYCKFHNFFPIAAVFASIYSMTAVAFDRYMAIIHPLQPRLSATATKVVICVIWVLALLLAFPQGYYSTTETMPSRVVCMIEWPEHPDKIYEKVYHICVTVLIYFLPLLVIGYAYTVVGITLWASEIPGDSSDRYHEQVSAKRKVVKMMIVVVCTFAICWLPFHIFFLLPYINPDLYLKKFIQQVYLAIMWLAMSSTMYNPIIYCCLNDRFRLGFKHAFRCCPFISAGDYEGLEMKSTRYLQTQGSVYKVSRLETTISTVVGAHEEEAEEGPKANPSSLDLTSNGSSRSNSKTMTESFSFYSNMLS
T3 sequence (P30547 whole entry): as the sequence (G1SEI7 1-407) above, with S176G, E186S, G329A, L342F, E368D, A369P, N376T, M395V, F399S counted along it

As for `CN(C[C@@H](CCN1CCC(N2CCCNC2=O)CC1)c1ccc(Cl)c(Cl)c1)C(=O)c1cc(C#N)cc2ccccc12` [Example 36, N-[(S)-2-(3,4-Dichlorophenyl)-4-[4-[tetrahydro-2-oxo-1(2H)-pyrimidinyl]-1-piperidinyl]-butyl]-N-methyl-3-cyano-1-naphthamide Citrate Hydrate (1:1:1.5)], the Kd at NK1 receptor is 7.41 nM; at NK2 receptor it was 13.8 nM. Further, the “NK1 P/A” value at NK1 receptors (1 hr) was 45.0 (1 hr). The “NK2 P/A” value at NK2 receptors (1 hr) is 20.6 (1 hr).
As a reminder, the melting point is the temperature of the solid-liquid transition. `CN(C[C@@H](CCN1CCC(c2ccc([S+](C)[O-])c(F)c2)CC1)c1ccc(Cl)c(Cl)c1)C(=O)c1cc(C#N)cc2ccccc12` (stereo partly drawn) (as salt: hydrochloride) [Example 60, N-[(S)-2-(3,4-Dichlorophenyl)-4-[4-[3-fluoro-4-methylsulfinylphenyl]-1-piperidinyl]butyl]-N-methyl-3-cyano-1-naphthamide] displayed a melting point of 175 to 180 °C.
On the same count and under the same terms, then `CCN(C[C@@H](CCN1CCC(c2ccccc2[S@+](C)[O-])CC1)c1ccc(Cl)c(Cl)c1)C(=O)c1cc(C#N)cc2ccccc12` [Example 69, N-[(S)-2-(3,4-Dichlorophenyl)-4-[4-[(S)-2-methylsulfinylphenyl]-1-piperidinyl]butyl]-N-ethyl-3-cyano-1-naphthamide], with 115 to 118 °C (dec.).
For `CN(C[C@@H](CCN1CCC(c2ccccc2[S@+](C)[O-])CC1)c1ccc(Cl)c(Cl)c1)C(=O)c1cc(C#N)cc2ccccc12` [Example 1, N-[(S)-2-(3,4-Dichlorophenyl)-4-[4-[(S)-2-methylsulfinylphenyl]-1-piperidinyl]butyl]-N-methyl-3-cyano-1-naphthamide], the Kd on NK1 receptor is 1.02 nM; at NK2 receptor, 5.5 nM. Besides, the “NK1 P/A” value on NK1 receptors (2 hr) is recorded as 32.5 (2 hr). For the same molecule, at NK2 receptors (2 hr), the “NK2 P/A” value is 21.4 (2 hr).
With `COc1ccc(C2CCN(CC[C@H](CN(C)C(=O)c3cc(C#N)cc4ccccc34)c3ccc(Cl)c(Cl)c3)CC2)c([S@+](C)[O-])c1.O=C(O)CC(O)(CC(=O)O)C(=O)O` [Example 2, N-[(S)-2-(3,4-Dichlorophenyl)-4-[4-{4-methoxy-(S)-2-methylsulfinylphenyl}-1-piperidinyl]butyl]-N-methyl-3-cyano-1-naphthamide Citrate], the Kd at NK1 receptor is 7.94 nM; on NK2 receptor it was 2 nM. Besides, the “NK1 P/A” value at NK1 receptors (2 hr) was 25.0 (2 hr). Also, at NK2 receptors (2 hr), the “NK2 P/A” value is given as 83.0 (2 hr).
